In paper PMC9325934, “Preliminary mechanistic insights of a brain-penetrant microtubule imaging PET ligand in a tau-knockout mouse model” (EJNMMI Research, 2022):
Structures can show the parent of a compound that is named as a salt.

How the values were obtained:
SH-SY5Y cells = experiment: In vitro [11C]MPC-6827 cell uptake assay with MT stabilizing/destabilizing agents and self-blocking
Experimental: Cell-binding assays in vitro were performed in SH-SY5Y cells with [^11C]MPC-6827 following our published protocols [20, 21]. […] They (0.5 × 10^6 cells/well) were treated with 1.0 µM of (a) stabilizing agents that increase MT polymerizations (paclitaxel, EpoD) [1, 25] or destabilizing agents increasing free tubulin content (vinblastine, mertasine) [26, 27] and 3 h later, [^11C]MPC-6827 (0.074 MBq/well) was added and incubated for 30 min at RT (n = 6/group). […] All the cells were washed with PBS and lysed with 1 N NaOH. Finally, the lysate from each well was γ-counted (PerkinElmer, Waltham, MA, USA) and counts-per-minute (cpm) values were normalized to the amount of radioactivity added to each well. Protein concentration was estimated in a subgroup of cells (n = 3) using the established Pierce BCA Protein Assay Kit from ThermoFisher [28, 29]. Cpm values were then matched to protein concentration per well, and the data expressed as %ID/mg of protein in each well.

[1] = [11C]MPC-6827 brain microPET/CT at baseline and after EpoD treatment; assay type: in vivo; conditions: female Balb/C mice, EpoD 3.0 mg/kg intraperitoneal, 3 days acute treatment
Experimental: To validate the in vitro MT-stabilization cell uptake results, normal Balb/C mice (n = 6, 6 mo old) were treated with epothilone D (EpoD), a brain-penetrant, MT-stabilizing drug commonly used in tauopathies. [^11C]MPC-6827 brain PET/CT imaging was performed at baseline and after 3 days of acute treatment of EpoD treatment (3.0 mg/kg intraperitoneal injection). Whole-brain SUVmax was calculated and compared between the baseline and post-drug treatment scans.

[2] = test system: stabilized/bound and destabilized/free tubulins of SH-SY5Y cells; experiment: Cytoskeleton kit-based tubulin assay with [11C]MPC-6827 (free vs bound tubulin fractions); assay type: cell-based, human; conditions: for decrease of [11C]MPC-6827 radioactivity in bound tubulin fractions / decrease of [11C]MPC-6827 radioactivity in free tubulin fractions / increase of [11C]MPC-6827 radioactivity in bound fractions / increase of [11C]MPC-6827 radioactivity in free tubulin fractions: 1.0 µM agent 3 h, vs untreated fractions
Experimental: To further investigate the tubulin selectivity of [^11C]MPC-6827 in SH-SY5Y cells, tubulin assay was performed using the commercially available kit-based assay (Cytoskeleton Inc, USA). Briefly, SH-SY5Y cells (7 × 10^6 cells/well) were pretreated with 1.0 µM of same MT stabilizing (EpoD, paclitaxel) and destabilizing agents (mertasine, vinblastine) for 3 h (n = 3/group). […] Samples were loaded on to ultra-centrifuge following the kit-based assay parameters to separate stabilized/bound and destabilized/free tubulins. Stabilized tubulins from low-speed centrifugation (1000×g for 5 min at 37 °C) and destabilized tubulins from high speed centrifugation (100,000×g for 20 min at 37 °C) were collected separately and their associated radioactivity was measured using a γ counter (Perkin Elmer).

[3] = [11C]MPC-6827 microPET/CT brain imaging in tau KO and WT mice; assay type: in vivo
Experimental: Small animal microPET/CT imaging was performed in anesthetized tau-KO and WT mice (n = 8/group) at 6 months of age. All mice received a bolus injection of [^11C]MPC-6827 (18.1 ± 0.01 MBq) via the tail vein. For the microPET/CT scans, the head/brain area was centered in the field of view, and the list-mode data from the emission scans were reframed into a 0-60 min dynamic binning sequence. Time-activity curves (TACs) were obtained, and radioactive uptake was expressed as standardized uptake values (SUVs) using the PMOD analysis software. Regions of interest (ROIs) were drawn for the whole brain and commonly AD-affected regions including cortex, striatum, hippocampus, and cerebellum, using Π-pmod Atlas software.

[4] = Post-PET ex vivo biodistribution of [11C]MPC-6827 in tau KO and WT mice
Experimental: Post-PET radiotracer tissue biodistribution studies were performed with [^11C]MPC-6827 in the KO and WT mice (n = 4/group). After dynamic brain imaging from 0 to 60 min, mice were euthanized, and samples of brain, blood, heart, lung, liver, spleen, pancreas, kidney, and muscle were harvested, weighed, and γ-counted using a Wallac Gamma Counter (PerkinElmer) with a standard dilution of the injectate. […]

[5] = In vitro autoradiography of [11C]MPC-6827 on brain sections; assay type: binding, mice
Experimental: Autoradiography studies in vitro were performed on postmortem frozen brain sections from tau KO and control mice (n = 6/group) following published protocols. Briefly, the sagittal sections were mount on a glass slides (Super frost plus slides, Fisher Scientific, Waltham, MA), air-dried for 30 min and incubated in PBS (pH 7.4) for 10 min to remove any endogenous binding. Additionally, a sub-section of tau KO brains (n = 4) were self-blocked with non-radioactive MPC-6827 (10 µM) 1 h prior to radiotracer treatment. The slides were air-dried and ~ 0.5 MBq of [^11C]MPC-6827 in PBS was added to each slide and incubated for 30 min. The slides were then washed with PBS (3×) and water (1×) at 4 °C and quickly air-dried. Slides containing the brain tissues were exposed to radioluminographic imaging cassette BAS IP SR 2025 (GE Healthcare) for 12 h at − 20 °C and scanned with a GE Amersham Typhoon scanner (25 µm pixel size). Autoradiographs were analyzed using ImageQuant TL 8.2 and ROI were manually drawn (see Additional file 1: 3), and specific binding in each ROI was calculated and expressed as photo-stimulated luminescence signals per square millimeter (PSL/mm^2).

β-tubulin = test system: β-tubulin; parameters: method as in PMID 17575155; conditions: high-affinity, selective β-tubulin binding MT agent; cited from earlier work
[6] = parameters: method as in earlier work; conditions: mice, rats, and dogs; cited from earlier work
[7] = 1.0 µM agent for 3 h, then tracer 30 min at RT, vs untreated cells

C/C1=C/C[C@@H](/C(C)=C/c2csc(C)n2)OC(=O)C[C@H](O)C(C)(C)C(=O)[C@H](C)[C@@H](O)[C@@H](C)CCC1 [EpoD, Epothilone d]
decrease of [11C]MPC-6827 radioactive uptake (SH-SY5Y cells; [7]): ~ 44 (± 2) %
lower [11C]MPC-6827 brain uptake (whole-brain SUVmax) with EpoD treatment compared to baseline [1]: ~ 23 (± 1) %
decrease of [11C]MPC-6827 radioactivity in bound tubulin fractions [2]: ~ 62 (± 6) %
decrease of [11C]MPC-6827 radioactivity in free tubulin fractions [2]: ~ 44 (± 1) %

Cc1nc(N(C)c2ccc(O[11CH3])cc2)c2ccccc2n1 [[^11C]MPC-6827]
whole-brain SUVmax ([3]; WT mice, 0-60 min microPET/CT, IV): 1.74
time of peak brain radioactivity (TAC) ([3]; both genotypes (tau KO and WT)): around 4 min
whole-brain SUVmax ([3]; tau KO mice, 0-60 min microPET/CT, IV): 2.33
whole-brain SUVmax in tau KO higher than in WT controls ([3]; tau KO vs WT mice, 0-60 min microPET/CT, IV): 33 (± 2) %
brain uptake ([4]; WT controls, brain): 1.03 ± 0.29 %ID/g
higher brain uptake in tau KO mice compared to WT controls ([4]; brain): ~ 41%
uptake in cortical regions ([4]; controls (WT), cortical regions): 0.69 ± 0.07 %ID/g
uptake in cortical regions of tau KO brains higher than in controls ([4]; cortical regions): 37%
brain uptake ([4]; tau KO mice, brain): 1.76 ± 0.31 %ID/g
uptake in cortical regions ([4]; tau KO mice, cortical regions): 1.11 ± 0.03 %ID/g
higher radioactivity in tau KO brains compared to age-matched controls, cortex ([5]; autoradiography in vitro, cortex): ~ 38[± 2] %
higher radioactivity in tau KO brains compared to age-matched controls, hippocampus ([5]; autoradiography in vitro, hippocampus): ~ 33[± 3] %
higher radioactivity in tau KO brains compared to age-matched controls, midbrain regions ([5]; autoradiography in vitro, midbrain regions): 30[± 3] %
higher radioactivity in tau KO brains compared to age-matched controls, whole brain ([5]; autoradiography in vitro, whole brain): ~ 46[± 4] %
increased radioactivity in destabilized/free tubulin fractions compared to bound fractions ([2]; tracer 30 min at RT): > 90 (± 4) %

CC(=O)O[C@H]1C(=O)[C@@]2(C)[C@H]([C@H](OC(=O)c3ccccc3)[C@]3(O)C[C@H](OC(=O)[C@H](O)[C@@H](NC(=O)c4ccccc4)c4ccccc4)C(C)=C1C3(C)C)[C@]1(OC(C)=O)CO[C@@H]1C[C@@H]2O [paclitaxel]
decrease of [11C]MPC-6827 radioactivity in bound tubulin fractions [2]: ~ 60 (± 2) %
decrease of [11C]MPC-6827 radioactivity in free tubulin fractions [2]: ~ 36.8 (± 3) %

COc1cc2cc(c1Cl)N(C)C(=O)C[C@H](OC(=O)[C@H](C)N(C)C(=O)CCS)[C@]1(C)O[C@H]1[C@H](C)[C@@H]1C[C@@](O)(NC(=O)O1)[C@H](OC)/C=C/C=C(\C)C2 [mertasine]
increase of [11C]MPC-6827 radioactive uptake (SH-SY5Y cells; [7]): 63 (± 2) %
increase of [11C]MPC-6827 radioactivity in bound fractions [2]: ~ 66 (± 2) %
increase of [11C]MPC-6827 radioactivity in free tubulin fractions [2]: ~ 39 (± 3) %

COc1ccc(N(C)c2nc(C)nc3ccccc23)cc1 [MPC-6827, MPC-6827 hydrochloride]
lower [11C]MPC-6827 radioactive uptake in self-blocking assay (SH-SY5Y cells; non-radioactive MPC-6827 1.0 µM 60 min before tracer, 30 min incubation): ~ 70 (± 1) %
lower radiotracer uptake on blocking compared to untreated tau KO samples ([5]; non-radioactive MPC-6827 10 µM 1 h prior to radiotracer, whole brain, cortex, hippocampus, mid-brain regions of tau KO sections): 63–70%
IC50 (β-tubulin): 1.5 nM
brain-to-plasma ratios [6]: 14–30 times

CC[C@]1(O)C[C@@H]2CN(CCc3c([nH]c4ccccc34)[C@@](C(=O)OC)(c3cc4c(cc3OC)N(C)[C@H]3[C@@](O)(C(=O)OC)[C@H](OC(C)=O)[C@]5(CC)C=CCN6CC[C@]43[C@@H]65)C2)C1 [vinblastine]
increase of [11C]MPC-6827 radioactive uptake (SH-SY5Y cells; [7]): ~ 78 (± 2) %
increase of [11C]MPC-6827 radioactivity in bound fractions [2]: 84 (± 4) %
increase of [11C]MPC-6827 radioactivity in free tubulin fractions [2]: ~ 43 (± 1) %
